How the values were obtained:
[1] = test system: B/Wyoming/07/2017 (B/Yamagata lineage) D198N variant; conditions: cited from earlier work
[2] = target: neuraminidase (NA) of recombinant influenza B/Phuket/3073/2013 H136N virus (Influenza B virus, UniProt A0A1S5RAG6, H134N); assay type: biochemical, influenza B/Phuket/3073/2013 virus
[3] = target: neuraminidase (NA) of recombinant influenza B/Phuket/3073/2013 R152K virus (Influenza B virus, UniProt A0A1S5RAG6, R150K); assay type: biochemical, influenza B/Phuket/3073/2013 virus
[4] = target: neuraminidase (NA) of recombinant influenza B/Phuket/3073/2013 D198E virus (Influenza B virus, UniProt A0A1S5RAG6, D197E); assay type: biochemical, influenza B/Phuket/3073/2013 virus
[5] = target: neuraminidase (NA) of recombinant influenza B/Phuket/3073/2013 D198N virus (Influenza B virus, UniProt A0A1S5RAG6, D197N); assay type: biochemical, influenza B/Phuket/3073/2013 virus
[6] = target: neuraminidase (NA) of recombinant influenza B/Phuket/3073/2013 I222T virus (Influenza B virus, UniProt A0A1S5RAG6, I221T); assay type: biochemical, influenza B/Phuket/3073/2013 virus
[7] = target: neuraminidase (NA) of recombinant influenza B/Phuket/3073/2013 N294S virus (Influenza B virus, UniProt A0A1S5RAG6, N294S); assay type: biochemical, influenza B/Phuket/3073/2013 virus
[8] = read-out: Neuraminidase Inhibitors IC50 values

Row | SMILES | susceptibility phenotype [1] | Folds (fold changes according to WT virus) [2] [fold] | IC50 [2, 8] [µM] | Folds (fold changes according to WT virus) [3] [fold] | IC50 [3, 8] [µM] | Folds (fold changes according to WT virus) [4] [fold] | IC50 [4, 8] [µM] | Folds (fold changes according to WT virus) [5] [fold] | IC50 [5, 8] [µM] | Folds (fold changes according to WT virus) [6] [fold] | IC50 [6, 8] [µM] | Folds (fold changes according to WT virus) [7] [fold] | IC50 [7, 8] [µM]
1 | CC(=O)N[C@H]1[C@H]([C@H](O)[C@H](O)CO)OC(C(=O)O)=C[C@@H]1N=C(N)N [Zanamivir, zanamivir] | susceptible | – | – | – | – | – | – | – | – | – | – | – | –
2 | CCC(CC)[C@H](NC(C)=O)[C@@H]1[C@H](O)[C@@H](C(=O)O)C[C@H]1N=C(N)N [Peramivir, peramivir] | – | 240 | 0.177 | 572 | 0.423 | 21 | 0.0155 | 9 | 0.00692 | 26 | 0.0195 | 46 | 0.0337
